Assay results taken from patent US5354862A, “Preparation and the use of halopropargylated cyclic quaternary ammonium compounds as antimicrobial agents” (Rohm and Haas Company, priority 1993, dated 1994).
Read-outs that look alike come from different tables or passages of the source.

Columns and labels:
Assay in all cases: Broth two-fold serial dilution MIC test
[1] = tested on: Pseudomonas aeruginosa; type: cell-based, Pseudomonas aeruginosa (ATCC 15442); details: Table 2, Psae
Text: (§1) A minimum inhibitory concentration (MIC) value is obtained using a broth, two-fold serial dilution test performed as follows: A stock solution or dispersion of the test compound, typically at a concentration of 1%, is made in a 5:3:2 solvent solution of acetone. methanol, and water. A volume of the stock solution is dispensed into culture media to give an initial starting test concentration of 500 ppm compound.
(§2) When the test is ready to be done, each vessel in the dilution series, except the first vessel, contains an equal volume of compound free broth. The first vessel contains twice the volume of broth with the starting concentration of test compound. One half of the broth from the first vessel is transferred to the second vessel- After being mixed, one half the resulting volume is removed from the second vessel and transferred to the third vessel. The entire cycle is repeated sufficiently to give a series of concentrations amounting to 500, 250, 125, 63, 31, 16, 8, and 4, 2, 1, 0.5, 0.25 ppm respectively.
(§3) Each vessel is then inoculated with a cell suspension of the appropriate test organism. Bacteria are grown in broth, fungi on agar slants for a time and at a temperature appropriate to the species being tested, and algae are a mixture of green algae and blue-green bacteria grown in a nutrient media. At the end of the growth period, in the case of bacteria, the broth is vortexed to disperse the cells.
(§4) In the case of fungi, the spores are harvested by pipetting water onto the slant and dislodging the spores with a sterile loop. The cell/spore suspension is standardized by controlling incubation time, temperature, and the volume of the diluent. The suspension is then used to inoculate the vessels containing the broth compound.
(§5) The vessels are then incubated at the appropriate temperature. After the incubation, the vessels are examined for growth/no growth. The minimum inhibitory concentration (MIC) is defined as the lowest concentration of compound that results in complete inhibition of growth of the test organism.
1. Pseudomonas aeruginosa

[2] = tested on: Escherichia coli; type: cell-based, Escherichia coli (ATCC 11229); details: Table 2, Ecol
Text: as §1, §2, §3, §4, §5

[3] = tested on: Staphylococcus aureus; type: cell-based, Staphylococcus aureus (ATCC 6538); details: Table 2, Saur
Text: as §1, §2, §3, §4, §5
2. Staphylococcus aureus

[4] = tested on: Aspergillus niger; type: cell-based, Aspergillus niger (ATCC 6275); details: Table 2, Anig, TSB media
Text: as §1, §2, §3, §4, §5
4. Aspergillus niger 6275 Anig

[5] = Pseudomonas aeruginosa, M9G media, read-out: MIC
[6] = Pseudomonas aeruginosa, TSB media, read-out: MIC
[7] = Escherichia coli, M9G media, read-out: MIC
[8] = Escherichia coli, TSB media, read-out: MIC
[9] = Staphylococcus aureus, M9G media, read-out: MIC
[10] = Staphylococcus aureus, TSB media, read-out: MIC
[11] = Aspergillus niger, read-out: MIC

MIC [1, 5] | MIC [1, 6] | MIC [2, 7] | MIC [2, 8] | MIC [3, 9] | MIC [3, 10] | MIC [4, 11] | MIC ([1]; M9G media) | MIC ([1]; TSB media) | MIC ([2]; M9G media) | MIC ([2]; TSB media) | MIC ([3]; M9G media) | MIC ([3]; TSB media) | MIC [4] | SMILES
8 µg/mL | 32 µg/mL | 2 µg/mL | 4 µg/mL | 0.25 µg/mL | 0.25 µg/mL | 4 µg/mL | – | – | – | – | – | – | – | CCCCCCCCCCCCCCC[N+]1(CC#CI)CCOCC1 [Compound 88, 4-pentadecyl-4-(3-iodopropargyl)-morpholinium methanesulfonate]
– | – | – | – | – | – | – | 125 ppm | 250 ppm | 2 ppm | 8 ppm | 0.5 ppm | 8 ppm | 125 ppm | CCCCCCCCCCOC(=O)C[N+]1(CC#CI)CCOCC1 [Compound 67, 4-(decyloxycarbonyl)methyl-4-(3-iodopropargyl)-morpholinium benzenesulfonate]
– | – | – | – | – | – | – | > 500 ppm | > 500 ppm | 16 ppm | 32 ppm | 4 ppm | 8 ppm | 125 ppm | CCCCCCOC(=O)CCCCC[N+]1(CC#CI)CCOCC1 [Compound 83, 4-[5-(hexyloxycarbonyl)]pentyl-4-(3-iodopropargyl)-morpholinium methanesulfonate]
250 µg/mL | 500 µg/mL | – | – | – | – | 4 µg/mL | – | – | 16 ppm | 32 ppm | 2 ppm | 16 ppm | – | CCCCCCCCCC[N+]1(CC#CI)CCCC1 [Compound 11]
16 µg/mL | – | 2 µg/mL | – | 0.5 µg/mL | – | 1 µg/mL | – | 16 ppm | – | 4 ppm | – | 1 ppm | – | CCCCCCCCCCCCC[N+]1(CC#CI)CCCC1 [Compound 8, 1-tridecyl-1-(3-iodopropargyl)-pyrrolidinium 4-methylbenzenesulfonate]

The next lines start with the compound.

SMILES | MIC [1, 5] | MIC [1, 6] | MIC [2, 7] | MIC [2, 8] | MIC [3, 9] | MIC [3, 10] | MIC [4, 11] | MIC ([1]; M9G media) | MIC ([1]; TSB media) | MIC ([2]; M9G media) | MIC ([2]; TSB media) | MIC ([3]; M9G media) | MIC ([3]; TSB media) | MIC [4]
OCCCCCCCCCCCC[N+]1(CC#CI)CCCCCC1 [Compound 27, 1-(12-hydroxydodecyl)-1-(3-iodopropargyl)-hexamethyleneiminium 4-methylbenzenesulfonate] | > 250 µg/mL | > 250 µg/mL | – | 250 µg/mL | 16 µg/mL | 32 µg/mL | 32 µg/mL | – | – | – | – | – | – | –
CCCCCCCCCCOC(=O)CC[N+]1(CC#CI)CCOCC1 [Compound 96] | – | – | – | – | – | – | – | 500 ppm | > 500 ppm | 8 ppm | 64 ppm | 32 ppm | 64 ppm | 16 ppm
CCCCCCCCCCCCCC[N+]1(CC#CI)CCCCCC1 [Compound 45, 1-tetradecyl-1-(3-iodopropargyl)-hexamethyleneiminium 4-methylbenzenesulfonate] | 4 µg/mL | 4 µg/mL | < 0.25 µg/mL | < 0.25 µg/mL | < 0.25 µg/mL | < 0.25 µg/mL | 1 µg/mL | – | – | – | – | – | – | –
CCCCCCCCCCCCOC(=O)C[N+]1(CC#CI)CCOCC1 [Compound 76, 4-(dodecyloxycarbonyl)methyl-4-(3-iodopropargyl)-morpholinium methanesulfonate] | – | – | – | – | – | – | – | 64 ppm | 125 ppm | 2 ppm | 8 ppm | 0.25 ppm | 2 ppm | 32 ppm
CCCCCCOC(=O)CCCCC[N+]1(CC#CI)CCCC1 [Compound 82, 1-[5-(hexyloxycarbonyl)]pentyl-1-(3-iodopropargyl)-pyrrolidinium 4-methylbenzenesulfonate] | > 500 µg/mL | > 500 µg/mL | 32 µg/mL | 64 µg/mL | 2 µg/mL | 8 µg/mL | – | – | – | – | – | – | – | 125 ppm
CCCCCCCCCCCCCC[N+]1(CC#CI)CCOCC1 [Compound 86, 4-tetradecyl-4-(3-iodopropargyl)-morpholinium n-butylsulfonate] | – | – | – | – | – | – | – | 8 ppm | 32 ppm | 2 ppm | 8 ppm | 0.5 ppm | 1 ppm | 8 ppm
